Data: ChEMBL document CHEMBL3797031, “Structure-activity relationship study of 4-substituted piperidines at Leu26 moiety of novel p53-hDM2 inhibitors” (Bioorg Med Chem Lett, 2016)

Experiments:
[1] = target: T1, E3 ubiquitin-protein ligase Mdm2 (Homo sapiens, UniProt Q00987); test: Binding affinity to human MDM2 assessed as inhibition of interaction with p53 by fluorescence polarization assay
[2] = Antiproliferative activity against human SJSA1 cells expressing wild type p53; type: functional, cell-based; settings: SJSA-1
Cytochrome P450 3A4 = Cytochrome P450 3A4 (Homo sapiens, UniProt P08684); test: Inhibition of CYP3A4 (unknown origin); type: ADME
Cytochrome P450 2C9 = Cytochrome P450 2C9 (Homo sapiens, UniProt P11712); test: Inhibition of CYP2C9 (unknown origin); type: ADME
[3] = Antiproliferative activity against p53 null human HCT116 cells; type: functional, cell-based; settings: HCT-116
SK-UT-1 = test: Antiproliferative activity against human SK-UT-1 cells expressing mutant p53; type: functional, cell-based
[4] = Antiproliferative activity against human HCT116 cells expressing wild type p53; type: functional, cell-based; settings: HCT-116
Cytochrome P450 2D6 = Cytochrome P450 2D6 (Homo sapiens, UniProt P10635); test: Inhibition of CYP2D6 (unknown origin); type: ADME
[5] = target: T1, E3 ubiquitin-protein ligase Mdm2; test: Binding affinity to human MDM2 by temperature dependent fluorescence assay

T1 sequence (Q00987 whole entry): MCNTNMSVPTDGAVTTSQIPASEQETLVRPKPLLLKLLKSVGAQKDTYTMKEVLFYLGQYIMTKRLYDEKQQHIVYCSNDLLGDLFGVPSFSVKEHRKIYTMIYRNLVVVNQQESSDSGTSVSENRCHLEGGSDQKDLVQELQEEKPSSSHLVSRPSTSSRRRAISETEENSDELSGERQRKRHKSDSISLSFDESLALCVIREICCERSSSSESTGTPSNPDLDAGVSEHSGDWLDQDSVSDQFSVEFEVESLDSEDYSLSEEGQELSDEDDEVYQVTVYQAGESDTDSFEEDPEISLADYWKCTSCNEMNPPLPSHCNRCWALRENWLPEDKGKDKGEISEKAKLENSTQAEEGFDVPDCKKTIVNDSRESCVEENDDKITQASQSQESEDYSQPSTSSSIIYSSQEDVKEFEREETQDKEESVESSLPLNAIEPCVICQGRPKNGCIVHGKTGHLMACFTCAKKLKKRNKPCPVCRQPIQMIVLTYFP
Cytochrome P450 2C9, sequence (P11712 whole entry): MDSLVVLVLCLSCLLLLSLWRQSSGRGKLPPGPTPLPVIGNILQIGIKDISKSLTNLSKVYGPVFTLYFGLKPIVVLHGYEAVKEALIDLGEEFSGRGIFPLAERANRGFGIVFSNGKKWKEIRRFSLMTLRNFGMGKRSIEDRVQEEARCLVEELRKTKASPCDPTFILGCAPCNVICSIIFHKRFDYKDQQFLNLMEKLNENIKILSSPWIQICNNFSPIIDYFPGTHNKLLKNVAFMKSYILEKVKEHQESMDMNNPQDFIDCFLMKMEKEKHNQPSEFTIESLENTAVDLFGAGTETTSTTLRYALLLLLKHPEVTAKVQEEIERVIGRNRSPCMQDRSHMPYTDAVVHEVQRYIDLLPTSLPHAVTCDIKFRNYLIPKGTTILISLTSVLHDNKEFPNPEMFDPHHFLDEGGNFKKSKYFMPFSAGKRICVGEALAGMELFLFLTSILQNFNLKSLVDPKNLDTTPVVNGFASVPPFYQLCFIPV
Cytochrome P450 2D6, sequence (P10635 whole entry): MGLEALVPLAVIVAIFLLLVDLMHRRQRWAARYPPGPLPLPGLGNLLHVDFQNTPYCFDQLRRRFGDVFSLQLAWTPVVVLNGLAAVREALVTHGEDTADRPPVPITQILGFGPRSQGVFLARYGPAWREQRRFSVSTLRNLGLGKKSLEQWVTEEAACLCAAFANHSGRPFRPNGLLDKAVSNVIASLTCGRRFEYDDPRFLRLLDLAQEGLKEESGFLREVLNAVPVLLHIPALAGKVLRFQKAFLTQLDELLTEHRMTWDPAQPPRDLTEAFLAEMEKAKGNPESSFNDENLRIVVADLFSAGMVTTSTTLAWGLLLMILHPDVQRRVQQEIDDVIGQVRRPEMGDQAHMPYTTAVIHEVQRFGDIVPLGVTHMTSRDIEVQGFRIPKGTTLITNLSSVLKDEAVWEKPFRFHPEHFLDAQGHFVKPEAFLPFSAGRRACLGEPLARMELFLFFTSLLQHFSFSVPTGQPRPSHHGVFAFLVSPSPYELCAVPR
Cytochrome P450 3A4, sequence (P08684 whole entry): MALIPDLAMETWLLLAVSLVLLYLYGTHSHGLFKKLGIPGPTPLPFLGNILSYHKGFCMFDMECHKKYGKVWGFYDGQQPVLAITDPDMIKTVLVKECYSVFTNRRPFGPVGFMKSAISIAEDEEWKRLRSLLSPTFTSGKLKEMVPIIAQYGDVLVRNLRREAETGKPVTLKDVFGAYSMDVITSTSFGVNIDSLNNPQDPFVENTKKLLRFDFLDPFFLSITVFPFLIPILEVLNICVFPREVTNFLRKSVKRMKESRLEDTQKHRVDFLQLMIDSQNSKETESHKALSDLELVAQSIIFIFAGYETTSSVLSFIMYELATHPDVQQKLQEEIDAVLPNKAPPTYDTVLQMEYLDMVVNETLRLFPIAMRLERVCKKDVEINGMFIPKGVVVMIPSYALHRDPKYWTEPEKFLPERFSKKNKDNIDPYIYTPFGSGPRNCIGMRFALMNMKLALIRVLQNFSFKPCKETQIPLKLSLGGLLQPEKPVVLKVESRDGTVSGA

| IC50 [1] | SMILES | further results |
| --- | --- | --- |
| 2360 nM | CCC[C@H]1N(C(=O)c2cnccc2C(F)(F)F)CCC[C@@]1(Oc1ccc(C(F)(F)F)cc1)C(=O)N1CCC(Oc2cccc(Cl)n2)CC1 | – |
| 150 nM | CCC[C@H]1N(C(=O)c2cnccc2C(F)(F)F)CCC[C@@]1(Oc1ccc(C(F)(F)F)cc1)C(=O)N1CCC(Oc2ccccn2)CC1 | – |
| 7740 nM | CCC[C@H]1N(C(=O)c2cnccc2C(F)(F)F)CCC[C@@]1(Oc1ccc(C(F)(F)F)cc1)C(=O)N1CCC(Oc2ncccc2CN)CC1 | – |
| 224 nM | CCC[C@H]1N(C(=O)c2cnccc2C(F)(F)F)CCC[C@@]1(Oc1ccc(C(F)(F)F)cc1)C(=O)N1CCC(Oc2ccncc2)CC1 | – |
| 4030 nM | CCC[C@H]1N(C(=O)c2cnccc2C(F)(F)F)CCC[C@@]1(Oc1ccc(C(F)(F)F)cc1)C(=O)N1CCC(Oc2cc(CN)ccn2)CC1 | – |
| 8770 nM | CCC[C@H]1N(C(=O)c2cnccc2C(F)(F)F)CCC[C@@]1(Oc1ccc(C(F)(F)F)cc1)C(=O)N1CCC(Oc2ccc(C)cc2)CC1 | – |
| 2760 nM | CCC[C@H]1N(C(=O)c2cnccc2C(F)(F)F)CCC[C@@]1(Oc1ccc(C(F)(F)F)cc1)C(=O)N1CCC(Oc2ccccc2Cl)CC1 | – |
| 6600 nM | CCC[C@H]1N(C(=O)c2cnccc2C(F)(F)F)CCC[C@@]1(Oc1ccc(C(F)(F)F)cc1)C(=O)N1CCC(Oc2ccccc2C)CC1 | – |
| 42 nM | CCC[C@H]1N(C(=O)c2cnccc2C(F)(F)F)CCC[C@@]1(Oc1ccc(C(F)(F)F)cc1)C(=O)N1CCC(Oc2cccc(C(=O)O)n2)CC1 | IC50 [2]: 4.65 µM; IC50 (Cytochrome P450 3A4): > 50 µM; IC50 (Cytochrome P450 2C9): > 50 µM; IC50 [3]: > 100 µM; IC50 (SK-UT-1): > 100 µM; IC50 [4]: 8.65 µM; IC50 (Cytochrome P450 2D6): > 50 µM |
| 5030 nM | CCC[C@H]1N(C(=O)c2cnccc2C(F)(F)F)CCC[C@@]1(Oc1ccc(C(F)(F)F)cc1)C(=O)N1CCC(Oc2cccc(C)n2)CC1 | – |
| 1860 nM | CCC[C@H]1N(C(=O)c2cnccc2C(F)(F)F)CCC[C@@]1(Oc1ccc(C(F)(F)F)cc1)C(=O)N1CCC(Oc2cccc(Br)n2)CC1 | – |
| 114 nM | CCC[C@H]1N(C(=O)c2cnccc2C(F)(F)F)CCC[C@@]1(Oc1ccc(C(F)(F)F)cc1)C(=O)N1CCC(Oc2cccc(C(=O)NC)n2)CC1 | – |
| 173 nM | CCC[C@H]1N(C(=O)c2cnccc2C(F)(F)F)CCC[C@@]1(Oc1ccc(C(F)(F)F)cc1)C(=O)N1CCC(Oc2cccc(CN)n2)CC1 | – |
| 399 nM | CCC[C@H]1N(C(=O)c2cnccc2C(F)(F)F)CCC[C@@]1(Oc1ccc(C(F)(F)F)cc1)C(=O)N1CCC(Oc2cccc(C#N)c2)CC1 | – |
| 293 nM | CCC[C@H]1N(C(=O)c2cnccc2C(F)(F)F)CCC[C@@]1(Oc1ccc(C(F)(F)F)cc1)C(=O)N1CCC(Oc2cc(C#N)ccn2)CC1 | – |
| 2040 nM | CCC[C@H]1N(C(=O)c2cnccc2C(F)(F)F)CCC[C@@]1(Oc1ccc(C(F)(F)F)cc1)C(=O)N1CCC(Oc2cccc(C(F)(F)F)n2)CC1 | – |
| – | O=C(c1cnccc1C(F)(F)F)N1CCCC(Oc2ccc(C(F)(F)F)cc2)(C(=O)N2CCN(c3ccccn3)CC2)C1 (centres undefined) | Kd [5]: 500 nM |
| 4280 nM | CCC[C@H]1N(C(=O)c2cnccc2C(F)(F)F)CCC[C@@]1(Oc1ccc(C(F)(F)F)cc1)C(=O)N1CCC(Oc2ncccc2C(N)=O)CC1 | – |
| 1060 nM | CCC[C@H]1N(C(=O)c2cnccc2C(F)(F)F)CCC[C@@]1(Oc1ccc(C(F)(F)F)cc1)C(=O)N1CCC(Oc2cnccn2)CC1 | – |
| 1150 nM | CCC[C@H]1N(C(=O)c2cnccc2C(F)(F)F)CCC[C@@]1(Oc1ccc(C(F)(F)F)cc1)C(=O)N1CCC(Oc2cccc(OC)n2)CC1 | – |
| 2400 nM | CCC[C@H]1N(C(=O)c2cnccc2C(F)(F)F)CCC[C@@]1(Oc1ccc(C(F)(F)F)cc1)C(=O)N1CCC(Oc2ncccc2C#N)CC1 | – |

| IC50 [1] | SMILES | further results |
| --- | --- | --- |
| 8710 nM | CCC[C@H]1N(C(=O)c2cnccc2C(F)(F)F)CCC[C@@]1(Oc1ccc(C(F)(F)F)cc1)C(=O)N1CCC(Oc2ccccc2C#N)CC1 | – |
| 2400 nM | CCC[C@H]1N(C(=O)c2cnccc2C(F)(F)F)CCC[C@@]1(Oc1ccc(C(F)(F)F)cc1)C(=O)N1CCC(Oc2ccccc2)CC1 | – |
| 686 nM | CCC[C@H]1N(C(=O)c2cnccc2C(F)(F)F)CCC[C@@]1(Oc1ccc(C(F)(F)F)cc1)C(=O)N1CCC(Oc2cccc(C#N)n2)CC1 | – |
| 9360 nM | CCC[C@H]1N(C(=O)c2cnccc2C(F)(F)F)CCC[C@@]1(Oc1ccc(C(F)(F)F)cc1)C(=O)N1CCC(Sc2ccc(C)cc2)CC1 | – |
| 8720 nM | CCC[C@H]1N(C(=O)c2cnccc2C(F)(F)F)CCC[C@@]1(Oc1ccc(C(F)(F)F)cc1)C(=O)N1CCC(Oc2cc(C(N)=O)ccn2)CC1 | – |
| 1980 nM | CCC[C@H]1N(C(=O)c2cnccc2C(F)(F)F)CCC[C@@]1(Oc1ccc(C(F)(F)F)cc1)C(=O)N1CCC(Sc2ccccc2)CC1 | – |
| 1920 nM | CCC[C@H]1N(C(=O)c2cnccc2C(F)(F)F)CCC[C@@]1(Oc1ccc(C(F)(F)F)cc1)C(=O)N1CCC(Oc2ccc(C#N)cc2)CC1 | – |
| 492 nM | CCC[C@H]1N(C(=O)c2cnccc2C(F)(F)F)CCC[C@@]1(Oc1ccc(C(F)(F)F)cc1)C(=O)N1CCC(Oc2ccc(C#N)cn2)CC1 | – |
| 144 nM | CCC[C@H]1N(C(=O)c2cnccc2C(F)(F)F)CCC[C@@]1(Oc1ccc(C(F)(F)F)cc1)C(=O)N1CCC(Oc2ccc(C(N)=O)cn2)CC1 | – |
| 4110 nM | CCC[C@H]1N(C(=O)c2cnccc2C(F)(F)F)CCC[C@@]1(Oc1ccc(C(F)(F)F)cc1)C(=O)N1CCC(Oc2ccc(Cl)cc2)CC1 | – |
| 801 nM | CCC[C@H]1N(C(=O)c2cnccc2C(F)(F)F)CCC[C@@]1(Oc1ccc(C(F)(F)F)cc1)C(=O)N1CCC(Oc2ccc(CN)cn2)CC1 | – |
| 25800 nM | CCC[C@H]1N(C(=O)c2cnccc2C(F)(F)F)CCC[C@@]1(Oc1ccc(C(F)(F)F)cc1)C(=O)N1CCC(Cc2ccc(C)cc2)CC1 | – |
| 111 nM | CCC[C@H]1N(C(=O)c2cnccc2C(F)(F)F)CCC[C@@]1(Oc1ccc(C(F)(F)F)cc1)C(=O)N1CCC(Oc2cccc(C(N)=O)n2)CC1 | – |
| 376 nM | CCC[C@H]1N(C(=O)c2cnccc2C(F)(F)F)CCC[C@@]1(Oc1ccc(C(F)(F)F)cc1)C(=O)N1CCC(Oc2ccncn2)CC1 | – |
| 267 nM | CCC[C@H]1N(C(=O)c2cnccc2C(F)(F)F)CCC[C@@]1(Oc1ccc(C(F)(F)F)cc1)C(=O)N1CCC(Oc2cccnc2)CC1 | – |
| 5830 nM | CCC[C@H]1N(C(=O)c2cnccc2C(F)(F)F)CCC[C@@]1(Oc1ccc(C(F)(F)F)cc1)C(=O)N1CCC(Cc2ccccc2)CC1 | – |
| 525 nM | CCC[C@H]1N(C(=O)c2cnccc2C(F)(F)F)CCC[C@@]1(Oc1ccc(C(F)(F)F)cc1)C(=O)N1CCC(Oc2cncnc2)CC1 | – |
| 392 nM | CCC[C@H]1N(C(=O)c2cnccc2C(F)(F)F)CCC[C@@]1(Oc1ccc(C(F)(F)F)cc1)C(=O)N1CCC(Oc2cccc(C(=O)OC)n2)CC1 | – |
| 668 nM | CCC[C@H]1N(C(=O)c2cnccc2C(F)(F)F)CCC[C@@]1(Oc1ccc(C(F)(F)F)cc1)C(=O)N1CCC(Oc2cccc(C)c2)CC1 | – |
| 2100 nM | CCC[C@H]1N(C(=O)c2cnccc2C(F)(F)F)CCC[C@@]1(Oc1ccc(C(F)(F)F)cc1)C(=O)N1CCC(Oc2cccc(Cl)c2)CC1 | – |
| 334 nM | CCC[C@H]1N(C(=O)c2cnccc2C(F)(F)F)CCC[C@@]1(Oc1ccc(C(F)(F)F)cc1)C(=O)N1CCC(Oc2ncccn2)CC1 | – |
